Results as given in PMC11671526, “β-caryophyllene sensitizes hepatocellular carcinoma cells to chemotherapeutics and inhibits cell malignancy through targeting MAPK signaling pathway” (Frontiers in Pharmacology, 2024).

System: HepG2 cells
Experiment: RNA-seq transcriptome analysis of differentially expressed genes
Format: cell-based, human
Details: BCP vs control HepG2
Description: The quality and concentration of RNA were examined by MOPS RNA electrophoresis and Eppendorf BioSpectrometer. The transcriptome analysis was performed by BGI-Wuhan China. The RNA-seq dataset of this study is accessible in the Gene Expression Omnibus (GEO) with an access number of GSE276099. The sequence library for each sample was prepared using the BGISEQ-500 platform with a 50-bp single-end (SE50) format. […]2.2.1) was used to align the clean reads to the reference genome and alignment of the clean reads to the reference genes was carried out using Bowtie2 (v2.4.5) ([Langmead and Salzberg, 2012]; [Kim et al., 2015]). Gene expression levels were calculated by RSEM (v1.3.1) ([Li and Dewey, 2011]). Analysis of differential gene expression was performed using edgeR in the Bioconductor software package ([Robinson et al., 2010]). Using a standard protocol, the RNA samples were also examined by reverse transcription and quantitative polymerase chain reaction (RT-qPCR). In brief, for reverse transcription, total RNA (1 μg) and gDNA wiper Mix were incubated at 42°C for 2 min. The samples were immediately incubated with a master mix containing 10 pmol/μL of poly (dT) primers at 37°C for 15 min and 85°C for 5 s. To detect the expression of specific genes by qPCR analysis, gene-specific primers (shown in Supplementary Table S1) were mixed with the ChamQ Universal SYBER qPCR Master Mix and the reaction was conducted using the Roche Lightcycler 480. The GAPDH value was used to normalize the results of each gene. The RNA-seq data of BCP-treated HepG2 cells were screened for DEGs. Gene symbols were turned into Enterz ID using the org.Hs.eg.db Bio-conductor R package. The cluster profiler (v4.6.2) package was used to perform the Kyoto Encyclopedia of Genes and Genomes (KEGG) and Gene Ontology (GO) enrichment analyses ([Wu et al., 2021]). Following the Transcript per million (TPM) data of the dataset, the line chart, and heatmap were plotted using ggplot2 and pheatmap R packages, respectively.

## C=C1CC/C=C(\C)CC[C@@H]2[C@@H]1CC2(C)C [BCP, β-caryophyllene]
Gene LIPH, RNA-seq
  logFC LIPH: -0.6901
Gene LIPH, DEG direction
  change LIPH: Down
Gene LOC107984590, RNA-seq
  logFC LOC107984590: -1.673
Gene LOC107984590, DEG direction
  change LOC107984590: Down
Gene LRRK1, RNA-seq
  logFC LRRK1: -0.9626
Gene LRRK1, DEG direction
  change LRRK1: Down
Gene LYSMD4, RNA-seq
  logFC LYSMD4: -0.6364
Gene LYSMD4, DEG direction
  change LYSMD4: Down
Gene MAB21L4, RNA-seq
  logFC MAB21L4: 0.9293
Gene MAB21L4, DEG direction
  change MAB21L4: Up
Gene MAFA, RNA-seq
  logFC MAFA: -0.8959
Gene MAFA, DEG direction
  change MAFA: Down
Gene MAGEB17, RNA-seq
  logFC MAGEB17: -2.787
Gene MAGEB17, DEG direction
  change MAGEB17: Down
Gene MALL, RNA-seq
  logFC MALL: -0.8293
Gene MALL, DEG direction
  change MALL: Down
Gene MAMDC2, RNA-seq
  logFC MAMDC2: 1.292
Gene MAMDC2, DEG direction
  change MAMDC2: Up
Gene MAP1A, RNA-seq
  logFC MAP1A: -1.186
Gene MAP1A, DEG direction
  change MAP1A: Down
Gene MAP7, RNA-seq
  logFC MAP7: 0.7065
Gene MAP7, DEG direction
  change MAP7: Up
Gene MEF2B, RNA-seq
  logFC MEF2B: -1.481
Gene MEF2B, DEG direction
  change MEF2B: Down
Gene METTL7A, RNA-seq
  logFC METTL7A: -1.025
Gene METTL7A, DEG direction
  change METTL7A: Down
Gene MFSD12, RNA-seq
  logFC MFSD12: 0.7075
Gene MFSD12, DEG direction
  change MFSD12: Up
Gene MMP17, RNA-seq
  logFC MMP17: 0.8815
Gene MMP17, DEG direction
  change MMP17: Up
Gene MMP24, RNA-seq
  logFC MMP24: 1.043
Gene MMP24, DEG direction
  change MMP24: Up
Gene MNX1, RNA-seq
  logFC MNX1: -0.6432
Gene MNX1, DEG direction
  change MNX1: Down
Gene MRPS6, RNA-seq
  logFC MRPS6: -0.923
Gene MRPS6, DEG direction
  change MRPS6: Down
Gene MTUS2, RNA-seq
  logFC MTUS2: -1.542
Gene MTUS2, DEG direction
  change MTUS2: Down
Gene MXD4, RNA-seq
  logFC MXD4: -0.5803
Gene MXD4, DEG direction
  change MXD4: Down
Gene MYEOV, RNA-seq
  logFC MYEOV: -0.7568
Gene MYEOV, DEG direction
  change MYEOV: Down
Gene MYH15, RNA-seq
  logFC MYH15: -1.78
Gene MYH15, DEG direction
  change MYH15: Down
Gene MYLK3, RNA-seq
  logFC MYLK3: 0.5851
Gene MYLK3, DEG direction
  change MYLK3: Up
Gene MYT1L, RNA-seq
  logFC MYT1L: 0.8858
Gene MYT1L, DEG direction
  change MYT1L: Up
Gene MYZAP, RNA-seq
  logFC MYZAP: -1.044
Gene MYZAP, DEG direction
  change MYZAP: Down
Gene NDC80, RNA-seq
  logFC NDC80: 0.6133
Gene NDC80, DEG direction
  change NDC80: Up
Gene NES, RNA-seq
  logFC NES: -0.6748
Gene NES, DEG direction
  change NES: Down
Gene NEXN, RNA-seq
  logFC NEXN: 0.7024
Gene NEXN, DEG direction
  change NEXN: Up
Gene NKD1, RNA-seq
  logFC NKD1: 1.009
Gene NKD1, DEG direction
  change NKD1: Up
Gene NKD2, RNA-seq
  logFC NKD2: 0.8671
Gene NKD2, DEG direction
  change NKD2: Up
Gene NOG, RNA-seq
  logFC NOG: -0.6516
Gene NOG, DEG direction
  change NOG: Down
Gene NOXO1, RNA-seq
  logFC NOXO1: -0.746
Gene NOXO1, DEG direction
  change NOXO1: Down
Gene NPIPB8, RNA-seq
  logFC NPIPB8: -2.227
Gene NPIPB8, DEG direction
  change NPIPB8: Down
Gene NR4A1, RNA-seq
  logFC NR4A1: 0.6275
Gene NR4A1, DEG direction
  change NR4A1: Up
Gene NR4A3, RNA-seq
  logFC NR4A3: 0.9047
Gene NR4A3, DEG direction
  change NR4A3: Up
Gene OASL, RNA-seq
  logFC OASL: -1.216
Gene OASL, DEG direction
  change OASL: Down
Gene P4HA3, RNA-seq
  logFC P4HA3: 1.2167
Gene P4HA3, DEG direction
  change P4HA3: Up
Gene PAK6, RNA-seq
  logFC PAK6: -1.538
Gene PAK6, DEG direction
  change PAK6: Down
Gene PALM3, RNA-seq
  logFC PALM3: -0.7485
Gene PALM3, DEG direction
  change PALM3: Down
Gene PAPPA, RNA-seq
  logFC PAPPA: 0.997
Gene PAPPA, DEG direction
  change PAPPA: Up
Gene PAQR5, RNA-seq
  logFC PAQR5: -0.667
Gene PAQR5, DEG direction
  change PAQR5: Down
Gene PCSK1, RNA-seq
  logFC PCSK1: 0.7709
Gene PCSK1, DEG direction
  change PCSK1: Up
Gene PDE7B, RNA-seq
  logFC PDE7B: 0.7688
Gene PDE7B, DEG direction
  change PDE7B: Up
Gene PDK1, RNA-seq
  logFC PDK1: 0.6017
Gene PDK1, DEG direction
  change PDK1: Up
Gene PDK4, RNA-seq
  logFC PDK4: 1.109
Gene PDK4, DEG direction
  change PDK4: Up
Gene PI3, RNA-seq
  logFC PI3: -1.544
Gene PI3, DEG direction
  change PI3: Down
Gene PLD1, RNA-seq
  logFC PLD1: 0.6612
Gene PLD1, DEG direction
  change PLD1: Up
Gene PLEKHG1, RNA-seq
  logFC PLEKHG1: 0.983
Gene PLEKHG1, DEG direction
  change PLEKHG1: Up
Gene PNPLA6, RNA-seq
  logFC PNPLA6: -0.6244
Gene PNPLA6, DEG direction
  change PNPLA6: Down
Gene PPP1R15A, RNA-seq
  logFC PPP1R15A: 0.636
Gene PPP1R15A, DEG direction
  change PPP1R15A: Up
Gene PRICKLE2, RNA-seq
  logFC PRICKLE2: -2.048
Gene PRICKLE2, DEG direction
  change PRICKLE2: Down
Gene PRKCZ, RNA-seq
  logFC PRKCZ: 0.789
Gene PRKCZ, DEG direction
  change PRKCZ: Up
Gene PRRG4, RNA-seq
  logFC PRRG4: -0.7407
Gene PRRG4, DEG direction
  change PRRG4: Down
Gene PSD4, RNA-seq
  logFC PSD4: -0.8285
Gene PSD4, DEG direction
  change PSD4: Down
Gene PTGS1, RNA-seq
  logFC PTGS1: -1.083
Gene PTGS1, DEG direction
  change PTGS1: Down
Gene PXDN, RNA-seq
  logFC PXDN: 0.6603
Gene PXDN, DEG direction
  change PXDN: Up
Gene RAB17, RNA-seq
  logFC RAB17: -1.103
Gene RAB17, DEG direction
  change RAB17: Down
Gene RAB43, RNA-seq
  logFC RAB43: -0.73
Gene RAB43, DEG direction
  change RAB43: Down
Gene RAPGEF3, RNA-seq
  logFC RAPGEF3: -0.8733
